The test has as its target SOS1:KRAS (G12C) interaction (Homo sapiens (Human), UniProt Q07889). Nature of the test: SOS1 KRas(G12C) FRET Assay. It counts as binding. As to conditions: 0.5 nM His10-SOS1 (res. 564-1049), 2.5 nM GST-KRAS G12C (res. 1-169), 2 hrs at RT. In a few lines:
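GST-KRAS G12C (res. 1-169) at 2.5 nM and His10-SOS1 (res. 564-1049) at 0.5 nM, final, in PBS with 0.1% BSA, 5 mM MgCl2, 100 mM KF, 5 mM DTT and 0.5% DMSO. After 2 h at RT, FRET read at 665/615 nm and normalized to DMSO and no-SOS1 controls. IC50 by non-linear regression.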

Sequence of SOS1:KRAS (G12C) interaction (Q07889 564-1049, stated change not applied): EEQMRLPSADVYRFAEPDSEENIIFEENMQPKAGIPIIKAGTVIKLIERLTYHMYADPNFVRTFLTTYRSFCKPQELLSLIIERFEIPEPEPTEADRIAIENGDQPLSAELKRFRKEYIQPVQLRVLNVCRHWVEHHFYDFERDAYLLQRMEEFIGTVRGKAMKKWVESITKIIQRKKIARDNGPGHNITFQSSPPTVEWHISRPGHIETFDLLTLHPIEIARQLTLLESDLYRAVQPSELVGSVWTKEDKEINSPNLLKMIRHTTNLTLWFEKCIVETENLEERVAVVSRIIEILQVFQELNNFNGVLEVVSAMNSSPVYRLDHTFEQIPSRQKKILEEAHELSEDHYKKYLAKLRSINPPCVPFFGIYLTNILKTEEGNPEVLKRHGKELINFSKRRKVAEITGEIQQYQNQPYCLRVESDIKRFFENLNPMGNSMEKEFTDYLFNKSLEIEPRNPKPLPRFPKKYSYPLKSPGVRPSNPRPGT

For orientation: IC50 means the midpoint of a concentration-inhibition curve. Low values mean greater potency in that assay, high ones weaker potency in that assay. `C[C@@H](NC(=O)c1cn([C@]23COC[C@H]2C3)c(=O)cc1NC1CCN(C)CC1)c1cccc(C(F)F)c1F` [Example 285, 1-((1S,SS)-3-oxabicyclo[3.1.0]hexan-1-yl)-N-((R)-1-(3-(difluoromethyl)-2-fluorophenyl)ethyl)-4-((1-methylpiperidin-4-yl)amino)-6-oxo-1,6-dihydropyridine-3-carboxamide] gave an IC50 of 4.7 nM.
`[2H]C([2H])([2H])N1CCC(Nc2cc(=O)n(C3(C(F)F)CC3)cc2C(=O)N[C@H](C)c2cccc(C(F)F)c2F)CC1` [Example 286, (R)-N-(1-(3-(difluoromethyl)-2-fluorophenyl)ethyl)-1-(1-(difluoromethyl)cyclopropyl)-4-((1-(methyl-d3)piperidin-4-yl)amino)-6-oxo-1,6-dihydropyridine-3-carboxamide] returned an IC50 of 15.5 nM.
For `C[C@@H](NC(=O)c1cn([C@]23COC[C@H]2C3)c(=O)cc1N[C@H]1[C@@H]2CN(C)C[C@@H]21)c1cccc(C(F)F)c1F` [Example 287, 1-((1S,5S)-3-oxabicyclo[3.1.0]hexan-1-yl)-N-((R)-1-(3-(difluoromethyl)-2-fluorophenyl)ethyl)-4-(((1R,5S,6s)-3-methyl-3-azabicyclo[3.1.0]hexan-6-yl)amino)-6-oxo-1,6-dihydropyridine-3-carboxamide], the IC50 came out at 9.9 nM.
To `C[C@@H](NC(=O)c1cn(C2(C(F)F)CC2)c(=O)cc1NC1CCN(C2(C)CC2)CC1)c1cccc(C(F)F)c1F` [Example 288, (R)-N-(1-(3-(difluoromethyl)-2-fluorophenyl)ethyl)-1-(1-(difluoromethyl)cyclopropyl)-4-((1-(1-methylcyclopropyl)piperidin-4-yl)amino)-6-oxo-1,6-dihydropyridine-3-carboxamide] belongs 23.6 nM.
Compound `C[C@@H](NC(=O)c1cn([C@]23COC[C@H]2C3)c(=O)cc1N[C@H]1[C@@H]2CN(C)C[C@@H]21)c1cccc(C(C)(F)F)c1F` [Example 289, 1-((1S,5S)-3-oxabicyclo[3.1.0]hexan-1-yl)-N-((R)-1-(3-(1,1-difluoroethyl)-2-fluorophenyl)ethyl)-4-(((1R,5S,6s)-3-methyl-3-azabicyclo[3.1.0]hexan-6-yl)amino)-6-oxo-1,6-dihydropyridine-3-carboxamide] had an IC50 of 13.3 nM.
Consider `C[C@@H](NC(=O)c1cn([C@]23COC[C@H]2C3)c(=O)cc1N[C@H]1[C@@H]2CN(C)C[C@@H]21)c1cccc(C(F)(F)F)c1F` [Example 290, 1-((1S,5S)-3-oxabicyclo[3.1.0]hexan-1-yl)-N-((R)-1-(2-fluoro-3-(trifluoromethyl)phenyl)ethyl)-4-(((1R,5S,6s)-3-methyl-3-azabicyclo[3.1.0]hexan-6-yl)amino)-6-oxo-1,6-dihydropyridine-3-carboxamide], for which the concentration for half-maximal inhibition (IC50) is 9.2 nM.
The compound `C[C@@H](NC(=O)c1cn(C2(C(F)F)CC2)c(=O)cc1N[C@H]1[C@@H]2CC[C@H]1CN(C)C2)c1cccc(C(F)F)c1F` [Example 293, N-((R)-1-(3-(difluoromethyl)-2-fluorophenyl)ethyl)-1-(1-(difluoromethyl)cyclopropyl)-4-(((1R,5S,8r)-3-(methyl-d3)-3-azabicyclo[3.2.1]octan-8-yl)amino)-6-oxo-1,6-dihydropyridine-3-carboxamide] displayed an IC50 of 19.2 nM.
`C[C@@H](NC(=O)c1cn(C2(C(F)F)CC2)c(=O)cc1N[C@@H]1[C@@H]2CC[C@H]1CN(C)C2)c1cccc(C(F)F)c1F` [Example 294, N-((R)-1-(3-(difluoromethyl)-2-fluorophenyl)ethyl)-1-(1-(difluoromethyl)cyclopropyl)-4-(((1R,5S,8s)-3-(methyl-d3)-3-azabicyclo[3.2.1]octan-8-yl)amino)-6-oxo-1,6-dihydropyridine-3-carboxamide] yielded an IC50 of 53.4 nM.
